# According to ChEMBL document CHEMBL1201862, “PubChem BioAssay data set” (2004):
#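 Step 1: Grow cells in 96-well plates. Step 2: Expose to compound for 48 hours at 5 concentrations. Step 3: Interpolate endpoints linearly; if unreached, use highest concentration. GI50 marks 50% less growth.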 The source made the active and inactive calls. Rule as the data show it: active = GI50 up to about 1.1 µM and inactive = higher.
# Tests used:
# Test in all cases: inhibition of tumour cell growth, NCI panel, 48 h
# LXFL 529 = system: LXFL 529
# NCI-H23 = system: NCI-H23
# U-251 = system: U-251
# HOP-92 = system: HOP-92
# TK-10 = system: TK-10
# OVCAR-8 = system: OVCAR-8
# MOLT-4 = system: MOLT-4
# HCC 2998 = system: HCC 2998
# SNB-19 = system: SNB-19
# CAKI-1 = system: CAKI-1
# SF-539 = system: SF-539
# RPMI-8226 = system: RPMI-8226
# SK-MEL-2 = system: SK-MEL-2
# K562 = system: K562
# DMS-273 = system: DMS-273
# 786-0 = system: 786-0
# HT-29 = system: HT-29
# UO-31 = system: UO-31
# SK-MEL-28 = system: SK-MEL-28
# SW-620 = system: SW-620
# HOP-18 = system: HOP-18
# SK-MEL-5 = system: SK-MEL-5
# M14 = system: M14
# EKVX = system: EKVX
# SNB-78 = system: SNB-78
# RXF 393 = system: RXF 393
# HL-60 = system: HL-60
# HOP-62 = system: HOP-62
# UACC-257 = system: UACC-257
# COLO 205 = system: COLO 205
# OVCAR-3 = system: OVCAR-3
# ACHN = system: ACHN
# SK-OV-3 = system: SK-OV-3
# KM12 = system: KM12
# DMS-114 = system: DMS-114
# A498 = system: A498
# SF-268 = system: SF-268
# OVCAR-5 = system: OVCAR-5
# HCT-15 = system: HCT-15
# UACC-62 = system: UACC-62
# DLD-1 = system: DLD-1
# A549 = system: A549
# SF-295 = system: SF-295
# SNB-75 = system: SNB-75
# NCI-H226 = system: NCI-H226
# SR = system: SR
# CCRF-CEM = system: CCRF-CEM
# NCI-H460 = system: NCI-H460
# SN12C = system: SN12C
# OVCAR-4 = system: OVCAR-4
# NCI-H522 = system: NCI-H522
# M19-MEL = system: M19-MEL
# KM-20L2 = system: KM-20L2
# IGROV-1 = system: IGROV-1
# Malme-3M = system: Malme-3M
# HCT-116 = system: HCT-116
# LOX IMVI = system: LOX IMVI
# XF498 = system: XF498
smiles,measurement,setting,value
N=C1c2ccccc2C(=O)c2c(NCCNCCO)ccc(O)c21,GI50,LXFL 529,6.5 µM (inactive)
same,GI50,NCI-H23,9.16 µM (inactive)
same,GI50,U-251,4.46 µM (inactive)
same,GI50,HOP-92,24.9 µM (inactive)
same,GI50,TK-10,11.9 µM (inactive)
same,GI50,OVCAR-8,4.72 µM (inactive)
same,GI50,MOLT-4,1.88 µM (inactive)
same,GI50,HCC 2998,9.42 µM (inactive)
same,GI50,SNB-19,8.24 µM (inactive)
same,GI50,CAKI-1,10.3 µM (inactive)
same,GI50,SF-539,4.73 µM (inactive)
same,GI50,RPMI-8226,7.19 µM (inactive)
same,GI50,SK-MEL-2,17.1 µM (inactive)
same,GI50,K562,3.64 µM (inactive)
same,GI50,DMS-273,5.57 µM (inactive)
same,GI50,786-0,4.73 µM (inactive)
same,GI50,HT-29,9.02 µM (inactive)
same,GI50,UO-31,7.83 µM (inactive)
same,GI50,SK-MEL-28,8.15 µM (inactive)
same,GI50,SW-620,3.1 µM (inactive)
same,GI50,HOP-18,11.5 µM (inactive)
same,GI50,SK-MEL-5,7.03 µM (inactive)
same,GI50,M14,10.3 µM (inactive)
same,GI50,EKVX,12 µM (inactive)
same,GI50,SNB-78,18.8 µM (inactive)
same,GI50,RXF 393,4.66 µM (inactive)
same,GI50,HL-60,6.85 µM (inactive)
same,GI50,HOP-62,4.91 µM (inactive)
same,GI50,UACC-257,13.9 µM (inactive)
same,GI50,COLO 205,4.73 µM (inactive)
same,GI50,OVCAR-3,12.9 µM (inactive)
same,GI50,ACHN,3.23 µM (inactive)
same,GI50,SK-OV-3,6.55 µM (inactive)
same,GI50,KM12,6.92 µM (inactive)
same,GI50,DMS-114,3.93 µM (inactive)
same,GI50,A498,13.7 µM (inactive)
same,GI50,SF-268,3.3 µM (inactive)
same,GI50,OVCAR-5,16 µM (inactive)
same,GI50,HCT-15,25.5 µM
same,GI50,UACC-62,6.4 µM (inactive)
same,GI50,DLD-1,5.92 µM (inactive)
same,GI50,A549,6.3 µM (inactive)
same,GI50,SF-295,12.5 µM (inactive)
same,GI50,SNB-75,15.6 µM (inactive)
same,GI50,NCI-H226,9.84 µM (inactive)
same,GI50,SR,0.579 µM (active)
same,GI50,CCRF-CEM,9.62 µM (inactive)
same,GI50,NCI-H460,5.06 µM (inactive)
same,GI50,SN12C,4.83 µM (inactive)
same,GI50,OVCAR-4,23.4 µM (inactive)
same,GI50,NCI-H522,3.4 µM (inactive)
same,GI50,M19-MEL,5.55 µM (inactive)
same,GI50,KM-20L2,5 µM (inactive)
same,GI50,IGROV-1,5.38 µM (inactive)
same,GI50,Malme-3M,13.7 µM (inactive)
same,GI50,HCT-116,3.27 µM (inactive)
same,GI50,LOX IMVI,4.15 µM (inactive)
CCN(CC)c1c(C(=O)/C=C/c2ccccc2)c(-c2ccccc2)nn(C)c1=O,GI50,LXFL 529,5.01 µM (inactive)
same,GI50,XF498,11.2 µM (inactive)
same,GI50,HOP-92,45.1 µM (inactive)
same,GI50,TK-10,> 100 µM (inactive)
same,GI50,OVCAR-8,5.37 µM (inactive)
same,GI50,MOLT-4,1.66 µM (inactive)
same,GI50,SNB-19,29.4 µM (inactive)
same,GI50,CAKI-1,> 100 µM (inactive)
same,GI50,SF-539,21.3 µM (inactive)
same,GI50,K562,2.52 µM (inactive)
same,GI50,DMS-273,4.98 µM (inactive)
same,GI50,786-0,7.31 µM (inactive)
same,GI50,HT-29,5.48 µM (inactive)
same,GI50,UO-31,> 100 µM (inactive)
same,GI50,SK-MEL-28,7.14 µM (inactive)
same,GI50,SK-MEL-5,5.02 µM (inactive)
same,GI50,EKVX,8.3 µM (inactive)
same,GI50,RXF 393,3.98 µM (inactive)
same,GI50,HL-60,4.22 µM (inactive)
same,GI50,HOP-62,> 100 µM (inactive)
same,GI50,UACC-257,8.17 µM (inactive)
same,GI50,COLO 205,5.81 µM (inactive)
same,GI50,ACHN,8.51 µM (inactive)
same,GI50,SK-OV-3,> 100 µM (inactive)
same,GI50,KM12,4.18 µM (inactive)
same,GI50,DMS-114,5.32 µM (inactive)
same,GI50,A498,5.43 µM (inactive)
same,GI50,SF-268,5.98 µM (inactive)
same,GI50,OVCAR-5,6.53 µM (inactive)
same,GI50,UACC-62,5.41 µM (inactive)
same,GI50,DLD-1,3.27 µM (inactive)
same,GI50,A549,5.37 µM (inactive)
same,GI50,SF-295,6.01 µM (inactive)
same,GI50,NCI-H226,93.1 µM (inactive)
same,GI50,SR,3.21 µM (inactive)
same,GI50,CCRF-CEM,2.2 µM (inactive)
same,GI50,NCI-H460,3.83 µM (inactive)
same,GI50,SN12C,4.68 µM (inactive)
same,GI50,OVCAR-4,4.78 µM (inactive)
same,GI50,NCI-H522,6 µM (inactive)
same,GI50,M19-MEL,> 100 µM (inactive)
same,GI50,KM-20L2,5.06 µM (inactive)
same,GI50,IGROV-1,9.79 µM (inactive)
same,GI50,Malme-3M,2.8 µM (inactive)
same,GI50,LOX IMVI,3.55 µM (inactive)
